From patent US7223772B1, “Pyrazolopyridine derivatives as selective cox-2 inhibitors” (SmithKline Beecham Corporation, priority 1998, dated 2007)

Columns and labels:
human COX-2 = molecular target: T1, human COX-2 (Homo sapiens, UniProt P35354); test: Inhibition of PGE2 release in COS cells stably transfected with human COX-2; format: cell-based; conditions: COS cells transfected with human COX-2, 30 μM arachidonic acid
T1 construct: expressed in transfected cells; host or cells: COS cells (stably transfected)
T1 sequence (P35354 18-604): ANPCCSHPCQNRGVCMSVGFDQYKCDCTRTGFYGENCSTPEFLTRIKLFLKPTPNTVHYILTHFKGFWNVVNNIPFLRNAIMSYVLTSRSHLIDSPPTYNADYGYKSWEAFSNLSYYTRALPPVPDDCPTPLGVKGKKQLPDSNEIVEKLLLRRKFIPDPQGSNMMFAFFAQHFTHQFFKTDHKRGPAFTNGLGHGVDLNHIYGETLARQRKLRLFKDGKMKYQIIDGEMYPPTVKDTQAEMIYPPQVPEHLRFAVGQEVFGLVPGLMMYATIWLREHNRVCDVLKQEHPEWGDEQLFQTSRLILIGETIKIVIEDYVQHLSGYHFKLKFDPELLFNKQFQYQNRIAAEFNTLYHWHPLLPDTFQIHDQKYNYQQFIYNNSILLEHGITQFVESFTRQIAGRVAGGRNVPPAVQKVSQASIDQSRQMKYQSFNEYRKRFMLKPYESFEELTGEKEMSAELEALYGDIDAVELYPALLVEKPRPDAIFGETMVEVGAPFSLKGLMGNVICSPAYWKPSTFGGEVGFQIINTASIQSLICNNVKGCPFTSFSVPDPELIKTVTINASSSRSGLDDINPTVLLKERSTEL
Protocol: (§1) Inhibitory activity against human COX-1 and COX-2 was assessed in COS cells which had been stably transfected with cDNA for human COX-1 and human COX-2. 24 Hours prior to experiment, COS cells were transferred from the 175 cm^2 flasks in which they were grown, onto 24-well cell culture plates using the following procedure. The incubation medium (Dulbecco's modified eagles medium (DMEM) supplemented with heat-inactivated foetal calf serum (10%v/v), penicillin (100 lU/ml), streptomycin (100 μg/ml) and geneticin (600 μg/ml)) was removed from a flask of confluent cells (1 flask at confluency contains approximately 1×10^7 cells). 10 ml of phosphate buffered saline (PBS) was added to the flask to wash the cells. Having discarded the PBS, cells were then rinsed in 10 ml trypsin for 20 seconds, after which the trypsin was removed and the flask placed in an incubator (37°) for 1-2 minutes until cells became detached from the flask. The flask was then removed from the incubator and cells resuspended in 10 ml of fresh incubation medium. The contents of the flask was transferred to a 250 ml sterile container and the volume of incubation medium subsequently made up to 100 ml. 1 ml cell suspension was pipetted into each well of 4×24-well cell culture plates. The plates were then placed in an incubator (37° C., 95% air/5% CO2) overnight. If more than 1 flask of cells were required, the cells from flasks were combined before being dispensed into the 24-well plates.
(§2) Following the overnight incubation, the incubation medium was completely removed from the 24-well cell culture plates and replaced with 250 μl fresh DMEM (37° C.). The test compounds were made up to 250× the required test concentration in DMSO and were added to the wells in a volume of 1 μl. Plates were then mixed gently by swirling and then placed in an incubator for 1 hour (37° C., 95% air/5% CO2). Following the incubation period, 10 μl of arachidonic acid (750 μM) was added to each well to give a final arachidonic acid concentration of 30 μM. Plates were then incubated for a further 15 minutes, after which the incubation medium was removed from each well of the plates and stored −20° C., prior to determination of prostaglandin E2 (PGE2) levels using enzyme immunoassay. The inhibitory potency of the test compound was expressed as an IC50 value, which is defined as the concentration of the compound required to inhibit the PGE2 release from the cells by 50%. The selectivity ratio of inhibition of COX-1 versus COX-2 was calculated by comparing respective IC50 values. The following IC50 values for inhibition of COX-2 and COX-1 were obtained for compounds of the invention: […]

human COX-1 = molecular target: T2, human COX-1 (Homo sapiens, UniProt P23219); test: Inhibition of PGE2 release in COS cells stably transfected with human COX-1; format: cell-based; conditions: COS cells transfected with human COX-1, 30 μM arachidonic acid
T2 construct: expressed in transfected cells; host or cells: COS cells (stably transfected)
T2 sequence (P23219 24-599): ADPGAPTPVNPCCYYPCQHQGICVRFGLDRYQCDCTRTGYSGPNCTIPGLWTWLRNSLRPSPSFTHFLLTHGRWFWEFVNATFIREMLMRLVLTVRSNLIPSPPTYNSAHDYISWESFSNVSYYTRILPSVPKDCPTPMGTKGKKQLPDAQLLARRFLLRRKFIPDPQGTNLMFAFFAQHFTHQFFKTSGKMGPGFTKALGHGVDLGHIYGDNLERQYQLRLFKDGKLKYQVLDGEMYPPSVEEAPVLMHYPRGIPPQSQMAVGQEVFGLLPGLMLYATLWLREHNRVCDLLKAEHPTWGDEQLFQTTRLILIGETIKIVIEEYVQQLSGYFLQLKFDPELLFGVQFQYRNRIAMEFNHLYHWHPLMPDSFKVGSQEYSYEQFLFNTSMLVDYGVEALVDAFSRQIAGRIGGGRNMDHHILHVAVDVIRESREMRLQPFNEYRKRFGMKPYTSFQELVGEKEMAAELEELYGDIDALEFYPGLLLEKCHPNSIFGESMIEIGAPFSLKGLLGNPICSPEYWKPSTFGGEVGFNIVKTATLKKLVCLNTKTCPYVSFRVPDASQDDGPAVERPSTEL
Protocol: as §1, §2

| SMILES | IC50 (human COX-2) | IC50 (human COX-1) |
| --- | --- | --- |
| NS(=O)(=O)c1ccc(-c2c(-c3cccc(F)c3)nn3cc(C(F)(F)F)ccc23)cc1 [Example 1(vii), 4-[2-(3-Fluoro-phenyl)-6-trifluoromethyl-pyrazolo[1,5-a]pyridin-3-yl]benzenesulfonamide] | 34 nM | > 100000 nM |
| CS(=O)(=O)c1ccc(-c2c(-c3cccc(F)c3)nn3cc(C(F)(F)F)ccc23)cc1 [Example 2, 2-(3-Fluoro-phenyl)-3-(4-methanesulfonyl-phenyl)-6-trifluoromethyl-pyrazolo[1,5-a]pyridine] | 548 nM | > 100000 nM |
| CCOc1ccc(-c2nn3cc(C(F)(F)F)ccc3c2-c2ccc(S(N)(=O)=O)cc2)cc1 [Example 3, 4-[2-(4-Ethoxy-phenyl)-6-trifluoromethyl-pyrazolo[1,5-a]pyridin-3-yl]benzenesulfonamide] | 34 nM | 32200 nM |
| NS(=O)(=O)c1ccc(-c2c(-c3ccc(F)cc3)nn3cc(C(F)(F)F)ccc23)cc1 [Example 4, 4-[2-(4-Fluoro-phenyl)-6-trifluoromethyl-pyrazolo[1,5-a]pyridin-3-yl]benzenesulfonamide] | 34 nM | > 100000 nM |
| CS(=O)(=O)c1ccc(-c2c(-c3ccc(F)cc3)nn3cc(C(F)(F)F)ccc23)cc1 [Example 5, 2-(4-Fluoro-phenyl)-3-(4-methanesulfonyl-phenyl)-6-trifluoromethyl-pyrazolo[1,5-a]pyridine] | 26 nM | > 100000 nM |
| NS(=O)(=O)c1ccc(-c2c(-c3ccccc3)nn3cc(C(F)(F)F)ccc23)cc1 [Example 6, 4-(2-Phenyl-6-trifluoromethyl-pyrazolo[1,5-a]pyridin-3-yl)-benzenesulfonamide] | 31 nM | 26300 nM |
| CS(=O)(=O)c1ccc(-c2c(-c3ccccc3)nn3cc(C(F)(F)F)ccc23)cc1 [Example 7, 3-(4-Methanesulfonyl-phenyl)-2-phenyl-6-trifluoromethyl-pyrazolo[1,5-a]pyridine] | 30 nM | > 100000 nM |
